The values below come from US11655235B2, “Pyrrolidine and piperidine compounds” (YUHAN CORPORATION, priority 2019, dated 2023).

What all share (format): biochemical
One assay concerns the target T1, recombinant human DPP7 (Homo sapiens, UniProt Q9UHL4).
T1 construct: purchased R&D Systems
The experiment in a line: DPP7 inhibition, fluorogenic substrate Lys-Pro-AMC. The settings on record: recombinant human DPP7. The essentials:
(§1)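 Inhibitors are titrated in an 8-point series into the enzyme's assay buffer (DMSO no more than 0.5%). Substrate cleavage at 25 °C is followed by fluorescence, excitation 380 nm and emission 460 nm. IC50 values come from a four-variable logistic model.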

The target of a further assay is T2, recombinant human DPP9 (Homo sapiens, UniProt Q86TI2).
T2 construct: purchased R&D Systems
In words: DPP9 inhibition, fluorogenic substrate H-Gly-Pro-AMC. The settings on record: recombinant human DPP9. The essentials:
as §1

In another assay the target is T3, recombinant human PREP (Homo sapiens, UniProt P48147).
T3 construct: purchased R&D System
T3 sequence (P48147 1-710): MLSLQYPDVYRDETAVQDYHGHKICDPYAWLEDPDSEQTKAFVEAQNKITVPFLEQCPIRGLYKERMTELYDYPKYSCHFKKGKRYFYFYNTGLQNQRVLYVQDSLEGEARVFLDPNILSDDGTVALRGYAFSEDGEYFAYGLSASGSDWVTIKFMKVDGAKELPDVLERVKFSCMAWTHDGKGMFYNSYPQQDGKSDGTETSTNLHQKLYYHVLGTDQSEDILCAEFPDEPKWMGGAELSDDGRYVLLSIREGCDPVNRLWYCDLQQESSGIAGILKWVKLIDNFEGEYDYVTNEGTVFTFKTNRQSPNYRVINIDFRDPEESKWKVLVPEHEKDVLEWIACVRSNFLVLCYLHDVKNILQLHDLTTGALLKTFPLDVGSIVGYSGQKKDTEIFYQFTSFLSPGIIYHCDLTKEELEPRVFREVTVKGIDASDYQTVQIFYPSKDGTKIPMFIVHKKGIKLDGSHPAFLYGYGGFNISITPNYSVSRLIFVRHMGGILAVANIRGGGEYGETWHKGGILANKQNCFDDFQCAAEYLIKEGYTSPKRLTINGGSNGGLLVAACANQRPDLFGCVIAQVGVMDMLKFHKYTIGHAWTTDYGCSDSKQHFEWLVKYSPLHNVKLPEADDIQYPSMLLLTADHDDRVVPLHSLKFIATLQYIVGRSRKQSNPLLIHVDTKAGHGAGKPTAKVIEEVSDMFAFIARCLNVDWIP
In words: PREP inhibition, fluorogenic substrate Z-Gly-Pro-AMC. Conditions: Inhibitory Activity (IC50, nM) PREP, recombinant human PREP. As to the method:
The compounds according to the present technology were evaluated in terms of the inhibitory effect on the activity of dipeptidyl peptidases including FAP by using a substrate producing fluorescent substances upon enzymatic decomposition. The test was conducted at 25° C. to get a final reaction volume of 100 μL in a 96 black well plate. […] Briefly, the test compounds were dissolved in dimethyl sulfoxide (DMSO) at a concentration of 20 mM and then subjected to serial dilution, thereby creating an 8 point curve. As for the control group, a 6 point curve created by serial dilution of Talabostat in the same buffer solution was used. Fluorescence intensity was measured using a microplate reader (Flexstation3, Molecular Devices) under the wavelength condition exciting at 380 nm and reading the emission at 460 nm. The inhibitory effect of the test compounds was measured as a decrease (%) in the signal rate as compared to the control group without any inhibitor. Data was fixed to a logistic model with four variables and IC50 value was calculated using GraphPad Prism program. As for recombinant human DPP4 (R&D Systems), 25 mM tris (pH 8.0) buffer as a buffer solution and H-Gly-Pro-AMC (Bachem) as a substrate were used. As for recombinant human DPP7 (R&D Systems), 25 mM MES (pH 6.0) buffer as a buffer solution and Lys-Pro-AMC (Bachem) as a substrate were used. As for recombinant human DPP8 (PBS Bioscience), as a buffer solution, a 10 mM tris (pH 7.4) buffer comprising 10 mM of magnesium chloride and 0.05% of Tween 20, and Z-Ala-Pro-AMC (BPS Bioscience) as a substrate were used. As for recombinant human DPP9 (R&D Systems), a 25 mM tris (pH 8.0) buffer as a buffer solution and H-Gly-Pro-AMC (Bachem) as a substrate were used. As for recombinant human PREP (R&D System), as a buffer solution, a 25 mM tris (pH 7.5) buffer comprising 250 mM sodium chloride and 2.5 mM DTT (Dithiolthreitol), and Z-Gly-Pro-AMC (Bachem) as a substrate were used. The evaluation was made by using 10 ng of DPP4, PDD7, and PREP, 20 ng of DPP8, and 50 ng of DPP9 based on the final reaction. In the evaluation of DPP4, the test compounds were subjected to serial dilution in a buffer under the condition containing up to 0.1% of DMSO. In the evaluation of DPP7, DPP8, DPP9, and PREP, the test compounds were subjected to serial dilution in each buffer under the condition containing up to 0.5% of DMSO.

Another assay addresses T4, Recombinant human FAP (Homo sapiens, UniProt Q12884).
T4 construct: purchased R&D systems
T4 sequence (Q12884 1-760): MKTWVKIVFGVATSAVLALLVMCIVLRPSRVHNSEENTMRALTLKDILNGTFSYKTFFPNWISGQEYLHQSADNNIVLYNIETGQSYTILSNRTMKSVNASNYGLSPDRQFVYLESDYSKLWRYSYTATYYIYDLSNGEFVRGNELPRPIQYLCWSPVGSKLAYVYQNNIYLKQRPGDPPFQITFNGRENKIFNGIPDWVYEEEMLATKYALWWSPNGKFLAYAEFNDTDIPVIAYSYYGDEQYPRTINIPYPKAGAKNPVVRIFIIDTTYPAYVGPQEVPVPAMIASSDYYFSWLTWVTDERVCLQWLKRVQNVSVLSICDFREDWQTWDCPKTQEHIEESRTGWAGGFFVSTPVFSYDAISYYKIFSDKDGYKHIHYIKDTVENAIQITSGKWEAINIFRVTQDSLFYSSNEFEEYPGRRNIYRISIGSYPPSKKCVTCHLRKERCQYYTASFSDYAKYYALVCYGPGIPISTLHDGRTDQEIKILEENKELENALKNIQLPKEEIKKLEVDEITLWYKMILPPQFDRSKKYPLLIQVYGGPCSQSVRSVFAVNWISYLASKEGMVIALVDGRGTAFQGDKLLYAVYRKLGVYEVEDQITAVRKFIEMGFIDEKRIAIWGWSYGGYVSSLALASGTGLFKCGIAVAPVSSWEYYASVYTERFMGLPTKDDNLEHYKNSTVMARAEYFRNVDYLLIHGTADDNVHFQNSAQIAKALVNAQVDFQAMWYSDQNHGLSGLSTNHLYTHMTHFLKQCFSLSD
In words: FAP FRET assay, FGF21-sequence FRET peptide substrate. Conditions: FRET peptide with human FGF21 sequence, 6 μM, 37° C. The essentials:
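FRET peptide bearing human FGF21 sequence (6 μM final) cleaved by 10 ng recombinant human FAP at 37° C in HEPES pH 7.2 buffer with NaCl, BSA and EDTA, DMSO up to 0.1%. Signal-rate decrease versus uninhibited control fitted to a four-variable logistic model for IC50.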

For another assay, the target named is DPP4 (Homo sapiens, UniProt P27487). In words: DPP4 inhibition, fluorogenic substrate H-Gly-Pro-AMC. Also on record: purchased R&D Systems. Conditions: recombinant human DPP4.

Structures are written as SMILES.

T2 sequence (Q86TI2 whole entry): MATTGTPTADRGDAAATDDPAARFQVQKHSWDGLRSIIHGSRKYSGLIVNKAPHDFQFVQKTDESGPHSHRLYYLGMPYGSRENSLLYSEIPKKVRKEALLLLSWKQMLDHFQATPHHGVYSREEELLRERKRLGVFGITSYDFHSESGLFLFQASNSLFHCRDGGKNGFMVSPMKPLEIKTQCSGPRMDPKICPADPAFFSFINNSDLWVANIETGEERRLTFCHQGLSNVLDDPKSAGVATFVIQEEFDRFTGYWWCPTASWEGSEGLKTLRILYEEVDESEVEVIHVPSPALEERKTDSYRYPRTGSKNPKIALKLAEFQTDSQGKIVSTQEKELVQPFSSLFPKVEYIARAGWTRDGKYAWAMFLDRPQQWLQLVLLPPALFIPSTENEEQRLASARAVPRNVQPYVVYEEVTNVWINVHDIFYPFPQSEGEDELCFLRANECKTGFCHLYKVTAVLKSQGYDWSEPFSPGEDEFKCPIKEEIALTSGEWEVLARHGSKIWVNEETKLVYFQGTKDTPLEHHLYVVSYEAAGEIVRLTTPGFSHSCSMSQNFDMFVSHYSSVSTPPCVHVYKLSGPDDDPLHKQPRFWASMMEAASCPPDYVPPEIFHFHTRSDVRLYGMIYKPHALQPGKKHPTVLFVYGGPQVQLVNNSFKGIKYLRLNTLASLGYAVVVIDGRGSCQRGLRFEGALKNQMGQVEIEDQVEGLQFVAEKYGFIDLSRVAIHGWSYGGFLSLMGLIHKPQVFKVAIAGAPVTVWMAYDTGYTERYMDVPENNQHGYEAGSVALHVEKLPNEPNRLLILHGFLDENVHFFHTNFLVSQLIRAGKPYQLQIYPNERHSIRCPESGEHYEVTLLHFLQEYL
Chain of DPP4 (P27487 whole entry): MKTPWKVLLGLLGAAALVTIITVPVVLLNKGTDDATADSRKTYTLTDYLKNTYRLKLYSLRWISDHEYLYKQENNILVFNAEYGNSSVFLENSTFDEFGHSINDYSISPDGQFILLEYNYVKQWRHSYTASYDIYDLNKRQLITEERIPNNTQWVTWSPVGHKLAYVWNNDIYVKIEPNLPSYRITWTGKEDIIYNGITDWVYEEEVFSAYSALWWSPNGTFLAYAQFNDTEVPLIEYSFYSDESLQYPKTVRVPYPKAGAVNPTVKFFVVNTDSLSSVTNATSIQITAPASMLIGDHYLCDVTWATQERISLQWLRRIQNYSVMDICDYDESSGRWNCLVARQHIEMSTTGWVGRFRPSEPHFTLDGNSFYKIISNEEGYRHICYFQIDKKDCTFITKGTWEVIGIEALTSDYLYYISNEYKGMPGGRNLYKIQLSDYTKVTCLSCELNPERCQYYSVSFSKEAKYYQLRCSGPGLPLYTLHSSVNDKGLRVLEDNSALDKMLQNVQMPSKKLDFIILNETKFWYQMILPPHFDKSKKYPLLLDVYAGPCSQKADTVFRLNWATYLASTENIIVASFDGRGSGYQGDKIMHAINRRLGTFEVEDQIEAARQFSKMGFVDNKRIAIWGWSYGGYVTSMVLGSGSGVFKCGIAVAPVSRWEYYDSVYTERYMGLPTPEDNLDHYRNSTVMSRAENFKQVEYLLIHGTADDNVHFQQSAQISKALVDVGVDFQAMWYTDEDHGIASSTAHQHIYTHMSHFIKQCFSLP

As to `Cc1cnc2cccc(N[C@@H]3CCN(CC(=O)N4CCC[C@H]4C#N)C3)c2c1` [Example 208, (2S)-1-[2-[(3R)-3-[(3-methyl-5-quinolyl)amino]pyrrolidin-1-yl]acetyl]pyrrolidine-2-carbonitrile], the IC50 on recombinant human DPP7 was determined as 1.37 µM; at recombinant human DPP9, 19.2 µM; at recombinant human PREP, 12000 nM; at Recombinant human FAP it was 0.0017 µM; at DPP4 it was 6.51 µM.

Regarding `Cc1cccc2c(N[C@@H]3CCN(CC(=O)N4C[C@@H](F)C[C@H]4C#N)C3)ccnc12` [Example 190, (2S,4S)-4-fluoro-1-[2-[(3R)-3-[(8-methyl-4-quinolyl)amino]pyrrolidin-1-yl]acetyl]pyrrolidine-2-carbonitrile], the IC50 at recombinant human DPP7 is 0.0637 µM; at recombinant human DPP9 it was 1.39 µM; on recombinant human PREP it was 1250 nM; at Recombinant human FAP, 0.0167 µM; on DPP4, 12.5 µM.

For `CCN(c1cnc2ccccc2c1)C1CCN(CC(=O)N2CCC[C@H]2C#N)CC1` [Example 302, (2S)-1-[2-[4-[ethyl(3-quinolyl)amino]-1-piperidyl]acetyl]pyrrolidine-2-carbonitrile], the IC50 at recombinant human DPP7 was 7.35 µM; on recombinant human DPP9, not below 100 µM; at recombinant human PREP, 350 nM; on Recombinant human FAP, 0.0222 µM; on DPP4, not below 100 µM.

For `CCN(c1ccc2ncccc2c1)C1CCN(CC(=O)N2CCC[C@H]2C#N)CC1` [Example 303, (2S)-1-[2-[4-[ethyl(6-quinolyl)amino]-1-piperidyl]acetyl]pyrrolidine-2-carbonitrile], the IC50 was 1.94 µM at recombinant human DPP7; not below 100 µM at recombinant human DPP9; 483 nM at recombinant human PREP; 0.0092 µM at Recombinant human FAP; not below 100 µM on DPP4.

As to `CN(C(=O)c1ccc(N[C@H]2CCN(CC(=O)N3C[C@@H](F)C[C@H]3C#N)C2)c2cccnc12)c1ccccc1` [Example 284, N-methyl-N-phenyl-5-[[(3S)-1-[2-oxo-2-[(2S,4S)-2-cyano-4-fluoro-pyrrolidin-1-yl]ethyl]pyrrolidin-3-yl]amino]quinoline-8-carboxamide], the IC50 on recombinant human DPP7 came to 0.932 µM; on recombinant human DPP9, 1.64 µM; on recombinant human PREP, 574 nM; on Recombinant human FAP, 0.0106 µM; on DPP4, 2.39 µM.

As for `COc1cc(N[C@@H]2CCN(CC(=O)N3CCC[C@H]3C#N)C2)c2cccnc2c1` [Example 198, (2S)-1-[2-[(3R)-3-[(7-methoxy-5-quinolyl)amino]pyrrolidin-1-yl]acetyl]pyrrolidine-2-carbonitrile], the IC50 at recombinant human DPP7 worked out at 0.901 µM; on recombinant human DPP9 it was 14.9 µM; on recombinant human PREP, 2920 nM; on Recombinant human FAP it was 0.0086 µM; on DPP4, 9.46 µM.

Turning to `N#C[C@@H]1C[C@H](F)CN1C(=O)CN1CC[C@H](Nc2ccc(C(=O)Nc3cccnc3)c3ncccc23)C1` [Example 295, N-(3-pyridyl)-5-[[(3S)-1-[2-oxo-2-[(2S,4S)-2-cyano-4-fluoro-pyrrolidin-1-yl]ethyl]pyrrolidin-3-yl]amino]quinoline-8-carboxamide], the IC50 amounted to 0.0641 µM on recombinant human DPP7; 0.0878 µM at recombinant human DPP9; 724 nM at recombinant human PREP; 0.0007 µM at Recombinant human FAP; 0.865 µM at DPP4.

For the molecule `N#C[C@@H]1C[C@H](F)CN1C(=O)CN1CC[C@H](Nc2ccc(NC(=O)c3ccccc3)c3ncccc23)C1` [Example 298, N-[5-[[(3S)-1-[2-oxo-2-[(2S,4S)-2-cyano-4-fluoro-pyrrolidin-1-yl]ethyl]pyrrolidin-3-yl]amino]-8-quinolyl]benzamide], the IC50 was 0.257 µM on recombinant human DPP7; 3.07 µM at recombinant human DPP9; 6520 nM at recombinant human PREP; 0.0021 µM at Recombinant human FAP; 1.86 µM at DPP4.

`COc1cnc2cccc(N[C@@H]3CCN(CC(=O)N4C[C@@H](F)C[C@H]4C#N)C3)c2c1` [Example 205, (2S,4S)-4-fluoro-1-[2-[(3R)-3-[(3-methoxy-5-quinolyl)amino]pyrrolidin-1-yl]acetyl]pyrrolidine-2-carbonitrile]: the IC50 at recombinant human DPP7 is 1.76 µM; on recombinant human DPP9 it was 3.04 µM; on recombinant human PREP, 7500 nM; at Recombinant human FAP it was 0.0026 µM; on DPP4, 0.796 µM.

In the case of `N#C[C@@H]1C[C@H](F)CN1C(=O)CN1CC[C@@H](Nc2cc(Cl)c3ncccc3c2)C1` [Example 215, (2S,4S)-4-fluoro-1-[2-[(3R)-3-[(8-chloro-6-quinolyl)amino]pyrrolidin-1-yl]acetyl]pyrrolidine-2-carbonitrile], the IC50 on recombinant human DPP7 was 0.544 µM; at recombinant human DPP9, 0.631 µM; at recombinant human PREP it was 3150 nM; on Recombinant human FAP it was 0.0015 µM; at DPP4 it was 1.16 µM.

On to `N#C[C@@H]1C[C@H](F)CN1C(=O)CN1CC[C@@H](Nc2ccnc3c(Cl)cccc23)C1` [Example 189, (2S,4S)-4-fluoro-1-[2-[(3R)-3-[(8-chloro-4-quinolyl)amino]pyrrolidin-1-yl]acetyl]pyrrolidine-2-carbonitrile], for which the IC50 on recombinant human DPP7 turned out to be 2.58 µM; on recombinant human DPP9 it was 1.51 µM; on recombinant human PREP, 1150 nM; at Recombinant human FAP, 0.01 µM; on DPP4, 3.5 µM.

The IC50 is the concentration that gives 50% inhibition.
